Source: patent US10285979B2, “Breast cancer therapeutic agent containing 5′-hydroxy-5-nitro-indirubin-3′-oxime as active ingredient” (ANYGEN CO., LTD., priority 2016, dated 2019)

How the values were obtained:
CAKI-1 = conditions: 10 μM; renal cell carcinoma cell line CAKI-1
Description: (§1) If the growth percent is 0%, it means that no further growth of cancer cells occurs, which is an ideal case.

SNB-19 = conditions: 10 μM; CNS cancer cell line SNB-19
Description: as §1

BT-549 = conditions: 10 μM; breast cancer cell line BT-549
Description: as §1

A549/ATCC = conditions: 10 μM; non-small cell lung cancer cell line A549/ATCC
Description: as §1

MDA-MB-231 = conditions: 10 μM; breast cancer cell line MDA-MB-231
Description: as §1

UO-31 = conditions: 10 μM; renal cell carcinoma cell line UO-31
Description: as §1

K-562 = conditions: 10 μM; leukemia cell line K-562
Description: as §1

NCI-H23 = conditions: 10 μM; non-small cell lung cancer cell line NCI-H23
Description: as §1

RPMI-8226 = conditions: 10 μM; leukemia cell line RPMI-8226
Description: as §1

A498 = conditions: 10 μM; renal cell carcinoma cell line A498
Description: as §1

SK-OV-3 = conditions: 10 μM; ovarian cancer cell line SK-OV-3
Description: as §1

HCC-2998 = conditions: 10 μM; colorectal cancer cell line HCC-2998
Description: as §1

MOLT-4 = conditions: 10 μM; leukemia cell line MOLT-4
Description: as §1

HCT-116 = conditions: 10 μM; colorectal cancer cell line HCT-116
Description: as §1

PC-3 = conditions: 10 μM; prostate cancer cell line PC-3
Description: as §1

HS 578T = conditions: 10 μM; breast cancer cell line HS 578T
Description: as §1

COLO 205 = conditions: 10 μM; colorectal cancer cell line COLO 205
Description: as §1

OVCAR-4 = conditions: 10 μM; ovarian cancer cell line OVCAR-4
Description: as §1

SK-MEL-4 = conditions: 10 μM; malignant melanoma cell line SK-MEL-4
Description: as §1

SK-MEL-2 = conditions: 10 μM; malignant melanoma cell line SK-MEL-2
Description: as §1

SF-539 = conditions: 10 μM; CNS cancer cell line SF-539
Description: as §1

IGROV1 = conditions: 10 μM; ovarian cancer cell line IGROV1
Description: as §1

SNB-75 = conditions: 10 μM; CNS cancer cell line SNB-75
Description: as §1

MDA-MB-435 = conditions: 10 μM; malignant melanoma cell line MDA-MB-435
Description: as §1

HOP-62 = conditions: 10 μM; non-small cell lung cancer cell line HOP-62
Description: as §1

MALME-3M = conditions: 10 μM; malignant melanoma cell line MALME-3M
Description: as §1

UACC-257 = conditions: 10 μM; malignant melanoma cell line UACC-257
Description: as §1

NCI-H226 = conditions: 10 μM; non-small cell lung cancer cell line NCI-H226
Description: as §1

SK-MEL-28 = conditions: 10 μM; malignant melanoma cell line SK-MEL-28
Description: as §1

NCI-H322M = conditions: 10 μM; non-small cell lung cancer cell line NCI-H322M
Description: as §1

SR = conditions: 10 μM; leukemia cell line SR
Description: as §1

OVCAR-8 = conditions: 10 μM; ovarian cancer cell line OVCAR-8
Description: as §1

M14 = conditions: 10 μM; malignant melanoma cell line M14
Description: as §1

786-0 = conditions: 10 μM; renal cell carcinoma cell line 786-0
Description: as §1

HT29 = conditions: 10 μM; colorectal cancer cell line HT29
Description: as §1

NCI/ADR/RES = conditions: 10 μM; ovarian cancer cell line NCI/ADR/RES
Description: as §1

CCRE-CEM = conditions: 10 μM; leukemia cell line CCRE-CEM
Description: as §1

SF-268 = conditions: 10 μM; CNS cancer cell line SF-268
Description: as §1

LOX IMVI = conditions: 10 μM; malignant melanoma cell line LOX IMVI
Description: as §1

NCI-H522 = conditions: 10 μM; non-small cell lung cancer cell line NCI-H522
Description: as §1

Structure (SMILES): O=C1Nc2ccc([N+](=O)[O-])cc2C1=C1Nc2ccc(O)cc2C1=NO [AGM-130, (2′Z 3′E)-5′-hydroxy-5-nitro indirubin oxime]
- Growth percent (CAKI-1): −14.28%
- Growth percent (SNB-19): 17.47%
- Growth percent (BT-549): 4.59%
- Growth percent (A549/ATCC): 10.64%
- Growth percent (MDA-MB-231): 25.45%
- Growth percent (UO-31): −1.14%
- Growth percent (K-562): 20.90%
- Growth percent (NCI-H23): 3.19%
- Growth percent (RPMI-8226): −7.92%
- Growth percent (A498): −24.52%
- Growth percent (SK-OV-3): −9.52%
- Growth percent (HCC-2998): 8.93%
- Growth percent (MOLT-4): 2.17%
- Growth percent (HCT-116): 2.29%
- Growth percent (PC-3): 2.12%
- Growth percent (HS 578T): 1.21%
- Growth percent (COLO 205): 65.80%
- Growth percent (OVCAR-4): 19.65%
- Growth percent (SK-MEL-4): −40.95%
- Growth percent (SK-MEL-2): −55.01%
- Growth percent (SF-539): −34.15%
- Growth percent (IGROV1): 6.36%
- Growth percent (SNB-75): −28.05%
- Growth percent (MDA-MB-435): 9.35%
- Growth percent (HOP-62): −9.77%
- Growth percent (MALME-3M): 11.73%
- Growth percent (UACC-257): 9.29%
- Growth percent (NCI-H226): −4.70%
- Growth percent (SK-MEL-28): −11.04%
- Growth percent (NCI-H322M): 7.21%
- Growth percent (SR): 0.38%
- Growth percent (OVCAR-8): 7.71%
- Growth percent (M14): 11.37%
- Growth percent (786-0): 4.21%
- Growth percent (HT29): 69.21%
- Growth percent (NCI/ADR/RES): 42.05%
- Growth percent (CCRE-CEM): 0.49%
- Growth percent (SF-268): 6.50%
- Growth percent (LOX IMVI): −32.44%
- Growth percent (NCI-H522): −79.07%
